We go through two compounds from PMC6572996, “Silver(I) Complexes of the Pharmaceutical Agents Metronidazole and 4-Hydroxymethylpyridine: Comparison of Cytotoxic Profile for Potential Clinical Application” (Molecules, 2019).

SMILES strings stand for the structures. A value given as a limit tells only on which side of the number the result lay.

One data set deals with HepG2 cells. Details: method as in doi:10.2478/v10213-012-0102-5. The note with it: cited from earlier work.
Data set [1] is described as follows: Cytotoxicity over four assays in both cell lines. Format: cell-based. Conditions: mouse (Balb/c 3T3) and human (HepG2), Balb/c 3T3 clone A31 fibroblasts and HepG2 hepatoma cells, mostly greater than 50%, read-out: Viability of the cells at the highest concentrations used. The procedure: Data obtained from the measurement of the optical density in these assays were transformed to percentages in relation to the control group, considered to be 100% for the MTT, NRU, and TPC assays and 0% for the LDH assay (Figure 1).
The human hepatoma cell line (HepG2) was purchased from the American Type Culture Collection (ATCC HB-8065). These cells were cultured in Minimum Essential Medium Eagle (MEME) (ATCC). The murine fibroblast cell line (Balb/c 3T3 clone A31) (gift from Department of Swine Diseases of the National Veterinary Research Institute in Pulawy) was cultured in Dulbecco’s Modified Eagle’s Medium (DMEM) (ATCC). The media were supplemented with 10% BCS (Balb/c 3T3), 10% FBS (HepG2), 1% L-glutamine, and 1% antibiotic solution. The cells were maintained in 75 cm^2 cell culture flasks (Nunc, Roskilde, Denmark) in a humidified incubator, NuAire (Plymouth, MN, USA) at 37 °C, in an atmosphere of 5% CO2. The medium was refreshed every two or three days and the cells were trypsinized by 0.25% trypsin–0.02% EDTA after reaching 70–80% confluence. […]
The concentration ranges of compounds were chosen according to their solubility and their plasma level. […] Cytotoxicity was assessed after 72 h of exposure of the cells to the compounds. […]
The results of the tests were expressed as a mean ± SD. […] The IC50 values were calculated by GraphPad Prism 5 software (San Diego, CA, USA). […]

In another data set the test system is FaO cells. Details: method as in doi:10.2478/v10213-012-0102-5. Conditions: cited from earlier work.
Another data set has as its system IEC-6 cells. Set-up: method as in PMID 20946968. The note with it: 84.8 µM, 24 h exposure; cited from earlier work.
The next data set concerns human fibroblasts (FMM1). Details: method as in PMID 20857004. Conditions: 50 µg/mL, 72 h treatment; cited from earlier work.
The test system of the next data set is MCF7 cells. Set-up: method as in PMID 22832309. The note with it: 48 h incubation, cited from earlier work.
The subject of a further data set is 10T1/2 cell line. Set-up: method as in PMID 26828469. Conditions: same observation as in this study; cited from earlier work.
In a further data set the test system is NIH/3T3 cells. The note with it: 24 h exposure; cited from earlier work.
The next data set relates to HeLa cell lines. Set-up: method as in PMID 19836347. The note with it: cited from earlier work.
Data set [2] relates to OVCAR-3 (ovarian) cell line. Details: method as in PMID 18615197. Conditions: 72 h; cited from earlier work.
The next data set deals with H-ras 5RP7 cells. Conditions: 24 h exposure; cited from earlier work.
The subject of data set [3] is murine fibroblasts (L929). Details: method as in PMID 18364400. The note with it: 24 h exposure; read-out: IC50, L929, MTT assay; cited from earlier work. Background: Tetrazolium dyes change colour on reduction, which living cells bring about.
The subject of a further data set is A549 (lung) cells. The note with it: 72 h exposure; cited from earlier work.
Data set [4] concerns HeLa (cervical) cell line. Set-up: method as in PMID 18615197. Conditions: 72 h; cited from earlier work.
For a further data set, the system named is MB157 (breast) cell line. Set-up: method as in PMID 18615197. The note with it: 72 h; cited from earlier work.

As for `Cc1ncc([N+](=O)[O-])n1CCO` [Metronidazole], the “Cytotoxicity in HepG2 cells” value with HepG2 cells is given as “low cytotoxicity”. The viability at 72 h in [1] was greater than 50%. Moreover, the “Cytotoxicity in FaO cells” value in the data set with FaO cells was “low cytotoxicity”. Moreover, the “Inhibition of viability of IEC-6 cells” value in the data set on IEC-6 cells is on record as 8%. Besides, the “Decrease of viability of human fibroblasts (FMM1)” value with human fibroblasts (FMM1) is 40%. In addition, in the data set on MCF7 cells (250 µM), the “Inhibition of MCF7 cells” value was 30%. Besides, the “Cytotoxicity in MCF7 cells” value in the data set on MCF7 cells (concentration range 2.5 to 250 µM) is “not cytotoxic”. In the data set on 10T1/2 cell line, the “Cytotoxicity in 10T1/2 cell line” value is given as “poorly cytotoxic”.
As a reminder, the IC50 is the concentration that inhibits the measured activity by half. In the case of `O=[N+]([O-])[O-].[Ag+]` [Silver nitrate], the IC50 was 12.3 µM with NIH/3T3 cells; 2.89 µM in the data set with HeLa cell lines; 35 µM in data set [2]; 6.75 µM with H-ras 5RP7 cells; 3.57 µM in [3]; 13.5 µM in the data set with A549 (lung) cells. For the same compound, the IC50 in data set [4] is 50 µM; in the data set with MB157 (breast) cell line it was 5 µM.
